Experimental findings from US11702630B2, “In vitro methods of differentiating stem cells into neurons and neurons generated using the same” (The J. David Gladstone Institutes, a testamentary trust …, priority 2016, dated 2023) are described below.

What all share (type): cell-based, human
Data set [1] has as its system pluripotent stem cells. As to the kind of experiment: Wnt activation in the V2a interneuron protocol, % CHX10+ cells. The note with it: FIG. 20A. On the procedure: (§1) For the “D0 CHIR treated” group, the GSK3 inhibitor, 2 μM CHIR990201 was added into the V2a interneuron protocol from day 0 to day 7. For the “D-2 CHIR treated” group, pluripotent stem cells were initially seeded at a higher density (120 k cells/cm^2) in the presence of 2 μM CHIR990201 for two days. The cells were then dissociated and re-plated at 25 k/cm^2 to begin the V2a interneuron protocol. CHIR990201 was kept in the media composition from day 0 to day 7. Further culture and analysis proceeded as previously described.

Data set [2] deals with pluripotent stem cells. As to the kind of experiment: Wnt activation in the V2a interneuron protocol, gene expression of cervical and thoracic markers. The note with it: FIG. 20B. On the procedure: Samples were lysed and RNA was extracted using the E.Z.N.A. Total RNA Kit (Omega Biotek, Norcross, Ga.). RNA (500 ng) was reverse-transcribed into cDNA using the iScript cDNA synthesis kit (BioRad, Hercules, Calif.). RT-qPCR was performed using Fast SYBR Green Master Mix (Life Technologies) and the primers listed in Table 1 below were annealed at 61° C. on the Step One Plus Real-Time PCR System (Life Technologies). Fold changes were calculated using the ΔΔCt method. For high throughput gene expression analysis, Fluidigm was used. Preamplified cDNA samples and primers were mixed with Sso Fast EvaGreen Supermix (BioRad) then loaded onto a 96.96 Dynamic Array integrated fluidic circuit (IFC) and ran on a BioMark HD system.
as §1

Data set [3] has as its system hPSCs. Briefly: Flow cytometry of CHX10 at day 17 of V2a interneuron differentiation. As to the method: hPSCs were seeded in mTeSR supplemented with 10 μM ROCK inhibitor and dual SMAD inhibitors 0.2 μM LDN193189 and 10 μM SB431542 ([…], Cambridge, Mass.) at 5,000-100,000 cells/cm^2 onto 24-well plates coated with Matrigel. On day 3, medium was changed to mTeSR supplemented with dual SMAD inhibitors only. On day 5, the base medium was switched to neural induction medium (DMEM F:12 (Corning), N2 supplement (Life Technologies, Carlsbad, Calif.), L-Glutamine (VWR), 2 μg/ml heparin (Sigma Aldrich, St. Louis, Mo.), non-essential amino acids (VWR), penicillin-streptomycin (VWR) supplemented with fresh 0.4 μg/ml ascorbic acid (Sigma Aldrich) and 10 ng/ml brain derived neurotrophin factor (BDNF, R&D Systems, Minneapolis, Minn.)) supplemented with dual SMAD inhibitors and 10 nM-10 μM retinoic acid (Sigma Aldrich). […] Medium was changed every 2 to 3 days throughout the differentiation, with fresh supplements added each time for up to 17 days.
(Flow cytometry measures light scatter and fluorescence of single cells or particles in a stream.)

Data set [4] relates to hPSCs. As to the kind of experiment: Total number of cells and yield of CHX10+ cells per input pluripotent cell at day 17. Conditions: for number of viable cells per 24-well culture at day 17: 100 nM RA and 100 nM pur, FIG. 2B. On the procedure: hPSCs were seeded in mTeSR supplemented with 10 μM ROCK inhibitor and dual SMAD inhibitors 0.2 μM LDN193189 and 10 μM SB431542 (StemGent, Cambridge, Mass.) at 5,000-100,000 cells/cm^2 onto 24-well plates coated with Matrigel. On day 3, medium was changed to mTeSR supplemented with dual SMAD inhibitors only. On day 5, the base medium was switched to neural induction medium (DMEM F:12 (Corning), N2 supplement (Life Technologies, Carlsbad, Calif.), L-Glutamine (VWR), 2 μg/ml heparin (Sigma Aldrich, St. Louis, Mo.), non-essential amino acids (VWR), penicillin-streptomycin (VWR) supplemented with fresh 0.4 μg/ml ascorbic acid (Sigma Aldrich) and 10 ng/ml brain derived neurotrophin factor (BDNF, R&D Systems, Minneapolis, Minn.)) supplemented with dual SMAD inhibitors and 10 nM-10 μM retinoic acid (Sigma Aldrich). On day 7, dual SMAD inhibition was ceased and 10 nM-10 μM retinoic acid, 10 nM-10 μM pur (EMD Millipore, Darmstast, Germany) and 100 nM-10 μM N—[N-(3,5-Difluorophenacetyl)-L-alanyl]-S-phenylglycine t-butyl ester (DAPT) were added to the neural induction medium. Medium was changed every 2 to 3 days throughout the differentiation, with fresh supplements added each time for up to 17 days.

The mark [5] stands for this setting: 2 μM CHIR added at D0, day 0 to day 7.
[6] abbreviates: 2 μM CHIR added at D-2 and passage with CHIR, kept to day 7.

Take `Cc1cnc(-c2cnc(NCCNc3ccc(C#N)cn3)nc2-c2ccc(Cl)cc2Cl)[nH]1` [CHIR, 6-[[2-[[4-(2,4-Dichlorophenyl)-5-(5-methyl-1H-imidazol-2-yl)-2-pyrimidinyl]amino]ethyl]amino]-3-pyridinecarbonitrile]: the “% of CHX10+ cells” value in the data set on pluripotent stem cells [1] (setting [5]) is listed as “did not decrease”; in the data set with pluripotent stem cells [1] (setting [6]) it was “greatly increased”. In addition, the “cervical and thoracic gene expression” value in the data set on pluripotent stem cells [2] (setting [5]) is “slightly increased”; in the data set with pluripotent stem cells [2] (setting [6]), “increased”.
Take `C[C@H](NC(=O)Cc1cc(F)cc(F)c1)C(=O)NC(C(=O)OC(C)(C)C)c1ccccc1` (some centres unmarked) [DAPT]: the “CHX10+ population at day 17” value with hPSCs [3] (DAPT 5 μM from day 7, RA and pur 100 nM each, FIG. 1E) is recorded as approximately 15%; in the data set on hPSCs [3] (DAPT 1 μm from day 7, RA and pur 100 nM each, FIG. 1E), approximately 15%. Moreover, in the data set with hPSCs [4] (1 μM DAPT compared with 5 μM DAPT, FIG. 2C), the “increase in number of CHX10+ cells per input pluripotent cell” value is given as approximately 50%. Besides, the “number of viable cells per 24-well culture at day 17” value with hPSCs [4] (DAPT 1 μM) is listed as 4.40 million cells; in the data set on hPSCs [4] (DAPT 5 μM), 2.85 million cells.
In the case of `CC1=C(/C=C/C(C)=C/C=C/C(C)=C/C(=O)O)C(C)(C)CCC1` [RA, retinoic acid], the “CHX10+ population at day 17” value with hPSCs [3] (RA 100 nM starting at day 5, pur 1 μM and DAPT 5 μM from day 7, FIG. 1C) is reported as approximately 6%.
For the compound `c1ccc2c(Oc3nc(Nc4ccc(N5CCOCC5)cc4)c4ncn(C5CCCCC5)c4n3)cccc2c1` [pur, 9-Cyclohexyl-N-[4-(4-morpholinyl)phenyl]-2-(1-naphthalenyloxy)-9H-purin-6-amine], in the data set on hPSCs [3] (pur 100 nM from day 7, 100 nM RA and 5 μM DAPT, FIG. 1D), the “Chx10+ cells after 17 days of differentiation” value is given as approximately 30%.
